# Data from ChEMBL document CHEMBL2157956, “Antibacterial activity of substituted dibenzo[a,g]quinolizin-7-ium derivatives” (2012).
# Calls of active or inactive are those of the source. The calls are words filed in the database; no cut-off is given here.
# Assays:
# Staphylococcus aureus [1] = assay: Antibacterial activity against methicillin-sensitive Staphylococcus aureus 8325-4 by CLSI broth microdilution method; type: functional
# Staphylococcus aureus [2] = assay: Antibacterial activity against methicillin-resistant Staphylococcus aureus ATCC 33591 by CLSI broth microdilution method; type: functional
# Enterococcus faecalis [3] = assay: Antibacterial activity against vancomycin-sensitive Enterococcus faecalis ATCC 19433 by CLSI broth microdilution method; type: functional
# Enterococcus faecalis [4] = assay: Antibacterial activity against vancomycin-resistant Enterococcus faecalis ATCC 51575 by CLSI broth microdilution method; type: functional
# [5] = target: T1, Cell division protein FtsZ (Staphylococcus aureus) (UniProt P0A031); assay: Induction of Staphylococcus aureus FtsZ self-polymerization assessed as increase in light scattering at 20 ug/mL measured every 5 secs by 90 deg angle light scattering assay
# T1 sequence (whole entry): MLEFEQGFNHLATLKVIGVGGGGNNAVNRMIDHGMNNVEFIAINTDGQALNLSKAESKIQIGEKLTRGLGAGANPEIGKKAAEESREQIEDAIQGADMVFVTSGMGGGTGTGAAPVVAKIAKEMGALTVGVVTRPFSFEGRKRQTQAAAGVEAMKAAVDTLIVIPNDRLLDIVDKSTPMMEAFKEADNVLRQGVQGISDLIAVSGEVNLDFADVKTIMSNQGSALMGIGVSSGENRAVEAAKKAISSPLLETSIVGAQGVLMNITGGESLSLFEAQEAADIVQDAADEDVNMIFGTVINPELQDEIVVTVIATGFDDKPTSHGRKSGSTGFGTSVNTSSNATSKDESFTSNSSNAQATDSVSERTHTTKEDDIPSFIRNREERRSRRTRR
# [6] = target: T1, Cell division protein FtsZ (Staphylococcus aureus); assay: Induction of Staphylococcus aureus FtsZ self-polymerization assessed as increase in light scattering at 10 ug/mL by 90 deg angle light scattering assay; settings: TDE = time-dependent effect
# [7] = target: T1, Cell division protein FtsZ (Staphylococcus aureus); assay: Induction of Staphylococcus aureus FtsZ self-polymerization assessed as increase in light scattering at 20 ug/mL by 90 deg angle light scattering assay; settings: TDE = time-dependent effect
# [8] = target: T1, Cell division protein FtsZ (Staphylococcus aureus); assay: Inhibition of Staphylococcus aureus FtsZ self-polymerization assessed as decrease in light scattering at 20 ug/mL by 90 deg angle light scattering assay; settings: TDE = time-dependent effect
Compound,MIC (Staphylococcus aureus [1]) [µg/mL],MIC (Staphylococcus aureus [2]) [µg/mL],MIC (Enterococcus faecalis [3]) [µg/mL],MIC (Enterococcus faecalis [4]) [µg/mL],Activity [5],Activity [6],Activity [7],inhibition [8]
COc1cc2c[n+]3ccc4c(OC)c(OC)ccc4c3cc2c(-c2ccc(-c3ccccc3)cc2)c1OC.[Cl-],2,8,8,16,,,,
CC(=O)OS(=O)(=O)[O-].COc1cc2cc3c4cc(-c5ccc(C)cc5)c(OC)cc4cc[n+]3c(C)c2cc1OC,4,8,8,> 64,,,,
Cc1onc(-c2ccccc2)c1C(=O)N[C@@H]1C(=O)N2[C@@H]1SC(C)(C)[C@@H]2C(=O)O [OXACILLIN],0.06,> 64,8,> 64,inactive,,,
CCC[C@@H]1C[C@@H](C(=O)N[C@@H]([C@H]2O[C@H](SC)[C@H](O)[C@@H](O)[C@H]2O)[C@H](C)Cl)N(C)C1 [CLINDAMYCIN],0.03,> 64,2,> 64,,,,
COc1cc2cc3c4cc(-c5ccc(C(C)(C)C)cc5)c(OC)c(OC)c4cc[n+]3cc2cc1OC.[Cl-],4,4,4,8,,,,
CC(=O)OS(=O)(=O)[O-].COc1cc2cc3c4cc(-c5ccc(-c6ccccc6)cc5)c(OC)c(OC)c4cc[n+]3c(C)c2cc1OC,1,2,4,8,,,,
COc1cc2cc3c4cc(-c5ccccc5)c(OC)c(OC)c4cc[n+]3cc2cc1OC.[Cl-],4,8,16,32,,,,
CN(C)[C@@H]1C(O)=C(C(N)=O)C(=O)[C@@]2(O)C(O)=C3C(=O)c4c(O)cccc4[C@@](C)(O)[C@H]3C[C@@H]12 [TETRACYCLINE],0.06,64,0.5,> 64,,,,
CC(C)C(=O)OS(=O)(=O)[O-].COc1cc2cc3c4cc(-c5ccc(-c6ccccc6)cc5)c(OC)c(OC)c4cc[n+]3c(C(C)C)c2cc1OC,0.5,0.5,2,2,,tde,tde,
COc1ccc2cc3[n+](cc2c1OC)CCc1cc2c(cc1-3)OCO2 [BERBERINE],> 64,> 64,> 64,> 64,,,,
CC(=O)OS(=O)(=O)[O-].COc1cc2cc3c4cc(-c5ccccc5)c(OC)cc4cc[n+]3c(C)c2cc1OC,8,> 64,> 64,> 64,,,,
CC(=O)OS(=O)(=O)[O-].COc1cc2c(C)[n+]3ccc4c(OC)c(OC)ccc4c3cc2c(-c2ccc(-c3ccccc3)cc2)c1OC,1,4,16,16,,,,
CC(=O)OS(=O)(=O)[O-].COc1cc2cc[n+]3c(C)c4cc(OC)c(OC)c(-c5ccc(-c6ccccc6)cc5)c4cc3c2cc1OC,1,4,4,32,,,tde,tde
CC(=O)OS(=O)(=O)[O-].COc1cc2cc3c4cc(-c5ccc(C(C)(C)C)cc5)c(OC)c(OC)c4cc[n+]3c(C)c2cc1OC,1,2,4,4,,,,
CC[C@H]1OC(=O)[C@H](C)[C@@H](O[C@H]2C[C@@](C)(OC)[C@@H](O)[C@H](C)O2)[C@H](C)[C@@H](O[C@@H]2O[C@H](C)C[C@H](N(C)C)[C@H]2O)[C@](C)(O)C[C@@H](C)C(=O)[C@H](C)[C@@H](O)[C@]1(C)O [ERYTHROMYCIN],0.13,> 64,1,> 64,,,,
COc1cc2cc3c4cc(-c5cccc6ccccc56)c(OC)c(OC)c4cc[n+]3cc2cc1OC.[Cl-],4,2,8,8,,,,
COc1cc2cc3c4cc(-c5ccc(-c6ccccc6)cc5)c(OC)c(OC)c4cc[n+]3cc2cc1OC.[Cl-],2,2,8,4,,,,
CC(=O)OS(=O)(=O)[O-].COc1cc2cc3c4cc(-c5cccc6ccccc56)c(OC)c(OC)c4cc[n+]3c(C)c2cc1OC,1,2,4,8,,,,
COc1cc2cc3c4cc(-c5ccccc5)c(OC)cc4cc[n+]3cc2cc1OC.[Cl-],8,32,32,64,,,,
CN[C@H](CC(C)C)C(=O)N[C@H]1C(=O)N[C@@H](CC(N)=O)C(=O)N[C@H]2C(=O)N[C@H]3C(=O)N[C@H](C(=O)N[C@H](C(=O)O)c4cc(O)cc(O)c4-c4cc3ccc4O)[C@H](O)c3ccc(c(Cl)c3)Oc3cc2cc(c3O[C@@H]2O[C@H](CO)[C@@H](O)[C@H](O)[C@H]2O[C@H]2C[C@](C)(N)[C@H](O)[C@H](C)O2)Oc2ccc(cc2Cl)[C@H]1O [VANCOMYCIN],,,1,> 64,,,,
COc1cc2cc[n+]3cc4cc(OC)c(OC)c(-c5ccc(-c6ccccc6)cc5)c4cc3c2cc1OC.[Cl-],2,4,8,32,,,,
COc1cc2cc3c4cc(-c5ccc(C)cc5)c(OC)cc4cc[n+]3cc2cc1OC.[Cl-],2,8,16,> 64,,,,
CC(=O)OS(=O)(=O)[O-].COc1cc2cc3c4cc(-c5ccccc5)c(OC)c(OC)c4cc[n+]3c(C)c2cc1OC,2,8,8,16,,,,
